Test results published in patent US9758472B2, “Non-lactone carbocyclic and heterocyclic antagonists and agonists of bacterial quorum sensing” (WISCONSIN ALUMNI RESEARCH FOUNDATION, priority 2009, dated 2017).
Read-outs that look alike come from different tables or passages of the source.

Tests used:
TraR [1] = molecular target: T1, TraR (Agrobacterium tumefaciens, UniProt P33905); assay: cell-based; assay type: cell-based; parameters: and Agrobacterium tumefaciens WCF (pCF372); endogenous in cells; host or cells: Agrobacterium tumefaciens WCF (pCF372)
Procedure: (§1) The initial library was also tested in Vibrio fischeri ESI 114 (Δ-LuxI) [Lupp, C.; Urbanowski, M.; Greenberg, E. P.; Ruby, E. G., The Vibrio fischeri quorum-sensing systems ain and lux sequentially induce luminescence gene expression and are important for persistence in the squid host. Mol. Microbiol. 2003, 50 (1), 319-331] and Agrobacterium tumefaciens WCF (pCF372). […] J. Bacteriol. 1998, 180 (20), 5398-5405.] […] [Geske, G. D.; O'Neill, J. C.; Miller, D. M.; Mattmann, M. E.; Blackwell, H. E., Modulation of Bacterial Quorum Sensing: Systematic Evaluation of N-Acylated Homoserine Lactones in Multiple Species and New Insights into Their Mechanism of Action. J. Am. Chem. Soc. 2007, 129, 13613-13625.]

LuxR [2] = molecular target: T2, LuxR (Aliivibrio fischeri, UniProt P35327); assay: cell-based; assay type: cell-based, Vibrio fischeri; parameters: The initial library was also tested in Vibrio fischeri ESI 114 (Δ-LuxI); endogenous in cells; host or cells: Vibrio fischeri ESI 114 (Δ-LuxI); settings: for IC50: dose response
Procedure: as §1

[3] = Functional half-life of autoinducers: ligand pre-incubated in media, then PA01 MW1 (pUM15) agonism readout; assay type: cell-based, P. aeruginosa; settings: ligand incubated in media with antibiotics at 37° C.; pseudo first order, t1/2=ln(2)/slope
Procedure: [Glansdorp, F. G.; Thomas, G. L.; Lee, J. K.; Dutton, J. M.; Salmond, G. P. C.; Welch, M.; Spring, D. R., Synthesis and stability of small molecule probes for Pseudomonas aeruginosa quorum sensing modulation. Org. Biomol. Chem. 2004, 2, 3329-3336.] […] In these cases the results were determined by NMR experiments conducted in deuterated buffers. […] Unfortunately, the use of high levels of DMSO reduces the biological relevance of the assay because large concentrations of DMSO cannot be tolerated by biological systems. Furthermore, the required concentrations of ligand are lower in a biologically based functional assay than in an NMR experiment because YFP production is much more sensitive than NMR, which requires relatively high concentrations.
In this assay, media, ligand, and antibiotics are prepared in Teflon-capped vials and allowed to incubate at 37° C. for predetermined times. P. aeruginosa cells from the strain PA01 MW1 (pUM15) were cultured overnight. These cells were then pelleted and washed with LB containing 50 mM MOPS. […] The 96 well plate was incubated for 8 hours and then analyzed for optical density and YFP fluorescence. […] Fluorescence was normalized to cell density and time points were analyzed as a percentage of the ability of the freshly prepared natural ligand to agonize the P. aeruginosa system. […]

LasR [4] = molecular target: T3, LasR (Pseudomonas aeruginosa, UniProt P25084); assay: LasR agonism assay, E. coli DH5α (pJN105L+pSC11) β-galactosidase reporter strain; assay type: cell-based, P. aeruginosa; settings: for Act %: thiolactone libraries, E. coli, synthetic ligands tested at 10 μM
T3 construct: expressed in transfected cells; host or cells: Escherichia coli DH5α (pJN105L+pSC11)
Procedure: (§2) The black bars are DH5α (pJN105L+pSC11) and the grey bars are PA01 MW1 (pUM15). Agonism positive control=activity of the reporter strain at full turn on for the strain. […] Negative control (Neg)=bacteria in the absence of natural and synthetic ligand. Error bars=standard deviation of the mean of triplicate samples.
(§3) The initial library was tested for LasR agonistic and antagonistic activity in two strains: Escherichia coli DH5α (pJN105L+pSC11) [Lee, J. H.; Lequette, Y.; Greenberg, E. P., Activity of purified QscR, a Pseudomonas aeruginosa orphan quorum-sensing transcription factor. Mol. Microbiol. 2006, 59 (2), 602-609] and P. aeruginosa PA01 MW1 (pUM15) [Muh, U.; Schuster, M.; Heim, R.; Singh, A.; Olson, E.; Greenberg, E. P., Novel Pseudomonas aeruginosa Quorum-Sensing Inhibitors Identified in an Ultra-High-Throughput Screen. Antimicrob. Agents Chemother. 2006, 50, 3674-3679] (FIGS. 5A and 5B). Both strains allow for synthetic autoinducer mimic evaluation and contain a reporter gene that allows for a quantitative readout of QS activity. DH5α (pJN105L+pSC11) is a heterologous β-galactosidase E. coli reporter strain containing a plasmid for the P. aeruginosa LasR gene. The PA01 MW1 (pUM15) strain uses the natural P. aeruginosa background containing a LasI deletion and the gene for yellow fluorescent protein (YFP) under the control of the LasI promoter to evaluate the LasI/R activity. Since the PA01 MW1 (pUM15) strain evaluates LasR in the natural P. aeruginosa background, in contrast to the heterologous E. coli strain, an improved idea of the interplay between the isolated LasI/R system and the combination of LasI/R with other QS subsystems such as QscR can be determined. Furthermore, additional nuances of the natural system such as compound permeability are incorporated in assays using the PA01 MW1 (pUM15) strain.

LasR [5] = molecular target: T3, LasR; assay: LasR antagonism assay, E. coli DH5α (pJN105L+pSC11) β-galactosidase reporter strain; assay type: cell-based, P. aeruginosa
Procedure: (§4) FIG. 5B is a bar graph showing the results of […] assay for initial heterocyclic and carbocyclic library (Scheme 1) shown as a percent of the positive control. Antagonism positive control (Pos)=activity of the reporter strain in the absence of synthetic ligand at the EC50 value for the strain. […] Negative control (Neg)=bacteria in the absence of natural and synthetic ligand. Error bars=standard deviation of the mean of triplicate samples.
as §3

LasR [6] = molecular target: T3, LasR; assay: LasR agonism assay, P. aeruginosa PA01 MW1 (pUM15) YFP reporter strain; assay type: cell-based; settings: for Act %: thiolactone libraries, P. aeruginosa, synthetic ligands tested at 10 μM
Procedure: as §2, §3

LasR [7] = molecular target: T3, LasR; assay: LasR antagonism assay, P. aeruginosa PA01 MW1 (pUM15) YFP reporter strain; assay type: cell-based; settings: initial library (FIG. 4); P. aeruginosa PA01 MW1; negative values indicate agonist properties
Procedure: as §4, §3

LuxR [8] = molecular target: T2, LuxR; settings: initial library (FIG. 4); V. fischeri ESI 114 (Δ-LuxI)
Procedure: as §1

TraR [9] = molecular target: T1, TraR; settings: dose response; A. tumefaciens WCF (pCF372)
Procedure: as §1

LasR [10] = molecular target: T3, LasR; assay: LasR antagonism assay, E. coli DH5α (pJN105L+pSC11) β-galactosidase reporter strain; assay type: cell-based, P. aeruginosa; settings: thiolactone libraries, synthetic ligands tested at 10 μM
[11] = cited from earlier work

T1 sequence (P33905 whole entry): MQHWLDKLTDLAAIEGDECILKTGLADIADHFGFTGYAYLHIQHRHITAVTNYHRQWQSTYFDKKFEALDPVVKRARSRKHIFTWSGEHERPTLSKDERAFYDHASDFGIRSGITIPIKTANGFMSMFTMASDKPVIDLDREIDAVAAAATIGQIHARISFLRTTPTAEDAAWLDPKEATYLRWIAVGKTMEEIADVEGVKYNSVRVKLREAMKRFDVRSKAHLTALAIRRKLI
T3 sequence (P25084 whole entry): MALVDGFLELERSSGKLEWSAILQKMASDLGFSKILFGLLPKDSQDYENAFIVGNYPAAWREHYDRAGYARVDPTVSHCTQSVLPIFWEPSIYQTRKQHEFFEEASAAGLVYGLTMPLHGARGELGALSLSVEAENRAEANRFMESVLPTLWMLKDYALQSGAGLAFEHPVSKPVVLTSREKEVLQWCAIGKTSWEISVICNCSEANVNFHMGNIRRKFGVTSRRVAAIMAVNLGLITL
T2 sequence (P35327 whole entry): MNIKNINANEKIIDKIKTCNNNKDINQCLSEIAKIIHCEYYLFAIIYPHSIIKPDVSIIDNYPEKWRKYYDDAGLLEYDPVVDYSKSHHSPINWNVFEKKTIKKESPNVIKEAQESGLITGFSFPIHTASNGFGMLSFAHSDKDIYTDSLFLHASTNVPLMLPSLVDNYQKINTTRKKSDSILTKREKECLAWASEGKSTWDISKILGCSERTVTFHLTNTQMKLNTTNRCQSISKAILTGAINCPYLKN

SMILES: CCCCCCCCCC(=O)CC(=O)N[C@H]1CCSC1=O [Compound 1E]
- IC50 (TraR [1]; dose response, A. tumefaciens WCF (pCF372)): 1800 nM
- inhibition at 10 µM (TraR [1]; read-out: Inhib %): 51%
- IC50 (LuxR [2]; V. fischeri ESI 114 (Δ-LuxI)): 450 nM
- inhibition at 10 µM (LuxR [2]; read-out: Inhib %): 91%
- half-life [3]: 82.3 h
- LasR agonism, in words (LasR [4]; E. coli DH5α (pJN105L+pSC11)): strong agonists
- EC50 (LasR [4]; dose response, E. coli DH5α (pJN105L+pSC11)): 92 nM
- Act % (LasR [4]): 102%
- inhibition at 10 µM (LasR [5]; read-out: Inhib %): -61%
- EC50 (LasR [6]; dose response, P. aeruginosa PA01 MW1 (pUM15)): 3200 nM
- Act % (LasR [6]): 127%

SMILES: CCCCCCCCCC(=O)CC(=O)NCc1cccc([N+](=O)[O-])c1 [Compound 13]
- Antagonist, percent inhibition compared to a positive control (LuxR [2]; initial library (FIG. 4), V. fischeri ESI 114 (Δ-LuxI)): 43.8%
- Antagonist, percent inhibition compared to a positive control (LasR [5]; initial library (FIG. 4), E. coli DH5α (pJN105L+pSC11), negative values indicate agonist properties): 41.0%
- Antagonist, percent inhibition compared to a positive control (LasR [7]): 16.8%
- Agonist, percent of activation compared to the positive control (LuxR [8]): 1.7%

SMILES: CCCCCC(=O)CC(=O)N[C@H]1CCSC1=O [Compound 24E]
- Inhib % (TraR [1]; thiolactone libraries, A. tumefaciens, synthetic ligands tested at 10 μM): −89%
- IC50 (LuxR [2]; V. fischeri ESI 114 (Δ-LuxI)): 350 nM
- Inhib % (LuxR [2]; thiolactone libraries, V. fischeri, synthetic ligands tested at 10 μM): 99%
- Act % (LasR [4]): 0%
- EC50 (TraR [9]): 20000 nM
- Act % (LasR [6]): 3%
- Inhib % (LasR [10]): −30%

SMILES: CCCCCCCCCC(=O)CC(=O)N[C@H]1CCOC1=O [OdDHL, 3-oxo-dodecanoyal homoserine lactone]
- half-life [3]: 48.2 h
- hydrolysis half-life ([11]; previous experiments, NMR in deuterated buffers, 50% solution of DMSO): approximately two
- racemization of the chiral center ([11]; previous experiments, over the course of a week): less than 5%
- half-life ([11]; previous literature, growth media at 37° C.): approximately two
